Results taken from patent publication US20260176249A1, “PROTEIN KINASE INHIBITOR, PREPARATION METHOD THEREFOR, AND APPLICATION THEREOF” (SHANDONG LUYE PHARMACEUTICAL CO., LTD., priority 2021, published 2026).
Where two headings read alike, the source gives them in different places.

How the values were obtained:
HCT116 cells = assay: Inhibitory activity on HCT116 cell proliferation (ATPlite); assay type: cell-based; conditions: Homo sapiens
Protocol: Cell culture medium: RPMI1640+10% FBS (GBICO)
Cell culture plate: 96-well plate (Shanghai Jingan Biotechnology Co., Ltd.)
Detection kit: ATPlite 1step Luminescence (PerkinElmer)
Detection instrument: BioTek multifunctional microplate reader
2. Test method: HCT116 cells in the logarithmic growth phase were seeded into a white-wall clear-bottom 96-well plate at a density of 720 cells per well, and cultured overnight in a 37° C., 5% CO2 incubator. […] After adding the drug, culturing was continued for 72 h in a 37° C., 5% CO2 incubator.
GraphPad Prism 7.0 was used to process the data, the cell inhibition rate curve was obtained and IC50 was calculated.

[1] = Permeability and efflux transporter substrate evaluation in Caco-2 cells; assay type: in vitro ADME; parameters: Papp A→B at 120 min / Papp B→A at 120 min / efflux ratio at 120 min / Papp at 120 min: dose or concentration left out as unconfirmed; conditions: human; for efflux ratio at 120 min / Papp at 120 min: Caco-2, pH 7.4; for Papp at 120 min: read-out: Classification Permeability; for Papp A→B at 120 min / Papp B→A at 120 min: pH 7.4, pH 7.40; for Papp A→B at 120 min: Caco-2, apical to basolateral; for Papp B→A at 120 min: Caco-2, basolateral to apical
Protocol: (§1) The cells were cultured in a carbon dioxide incubator for 21-28 days before being used for transport experiments. During this period, the culture medium was changed every four to five days.
(§2) This project uses Hank's balanced salt buffer (pH 7.40±0.05) containing 10 mM HEPES as the transport buffer. The culture medium was removed from the culture plate and the cells were washed twice with preheated transport buffer (approximately 75 μL and 40 mL of transport buffer for each apical well and basolateral receiver plate respectively). The donor solution and receiver solution were added to the corresponding cell plate wells (75 and 250 μL for each apical and basolateral well respectively), and the bidirectional transport experiment was started (apical to basolateral (A-B) and basolateral to apical (B-A)). The test concentration of the test substance was […], and two replicate wells were made for each dosing concentration. The test concentration of Digoxin was […], with dosing bidirectionally; the test concentrations of nadolol and metoprolol were both […], and they were dosed in one direction (A-B direction), and two replicate wells were made for each of the three control compounds.
(§3) The initial donor solution is the TO sample. After adding the sample, it was mixed with the transport buffer and stop solution in a certain proportion.
(§4) All samples were vortexed, and then centrifuged at 3220×g for 20 min at 20° C. A proper volume of supernatant was transferred to a sample assay plate, and the sample was stored at 2-8° C. if it was not analyzed immediately after the plate was sealed, and LC MS/MS method was used for analysis.
(§5) The Lucifer Yellow Rejection Assay was used to test the integrity of the Caco-2 cell layer.
(§6) The following formulas were used to calculate the apparent permeability coefficient (Papp, cm/s), efflux ratio (ER), and solution recovery (%) (% Solution Recovery).
(§7) [formula] [formula] [formula] • VR is the volume of the receiver side solution (side A is 0.075 mL, side B is 0.25 mL); Area is the relative surface area of the cell monolayer (0.0804 cm^2); Time is the incubation time (7200 s); C0 is the initial concentration (nM) of the test substance at the donor side or the peak area ratio of the control compound; VD is the volume of the donor side (side A is 0.075 mL, side B is 0.25 mL); CD and CR are the final concentration (nM) of the test substance at the donor side and the receiver side respectively or the peak area ratio of the control compound; • Lucifer yellow transmittance rate (% Lucifer Yellow) is calculated using the following formula:
(§8) [formula] • RFUApical and RFUBasolateral are the relative fluorescence intensity of lucifer yellow at the apical and basolateral sides respectively. VApical and VBasolateral are the sample loading volumes at the apical and basolateral sides respectively (0.075 and 0.25 mL respectively).

Caco-2 cells = assay: as above; assay type: in vitro ADME; parameters: Papp A→B at 120 min / Papp B→A at 120 min / efflux ratio at 120 min / Papp at 120 min: dose or concentration left out as unconfirmed; conditions: Caco-2
Protocol: as §1, §2, §3, §4, §5, §6, §7, §8

[2] = Metabolic stability in mouse liver microsomes; assay type: in vitro ADME; conditions: for CLint scaled at 1 µM / half-life at 1 µM / microsomal CLint at 1 µM: mouse; for CLint scaled at 1 µM / half-life at 1 µM: pH 7.4; for microsomal CLint at 1 µM: pH 7.4, read-out: CLint(mic)
Protocol: (§9) a. Preparation of phosphate buffer: The phosphate buffer powder was dissolved in 100 mL of pure water to prepare a phosphate buffer solution with a pH of 7.4 and a concentration of 100 mM, which was stored in a 4° C. refrigerator for later use.
(§10) b. All samples as well as the reference testosterone were dissolved in DMSO to obtain a 10 mM stock solution. The 10 mM stock solution was diluted to 100 μM with acetonitrile to obtain a working solution for later use.
(§11) c. Preparation of liver microsome working solution: Each of the mouse, rat and human liver microsome stock solutions (at concentration of 20 mg/mL) was taken and diluted to 0.56 mg/mL with 100 mM phosphate buffer solution to obtain the liver microsome working solution.
(§12) d. Preparation of solution: An appropriate amount of MgCl2 was weighed and used to prepare a MgCl2 solution at a concentration of 60 mM using 100 mM phosphate buffer solution. An appropriate amount of NADPH was weighed and used to prepare a NADPH solution at a concentration of 20 mM using 100 mM phosphate buffer solution. An equal volume of 60 mM MgCl2 solution was added to prepare an NADPH working solution containing 10 mM NADPH and 30 mM MgCl2. An acetonitrile solution containing 20 ng/mL tolbutamide was prepared as the stop solution.
(§13) e. Liver microsome incubation: 2 μL of each compound and the positive drug testosterone working solution were added to 178 μL of liver microsome working solution (0.56 mg/mL), mixed gently, and pre-incubated in a vibrating constant temperature water bath pot at 37° C. for 10 min. After adding 20 μL of NADPH working solution, the mixture was placed in a vibrating constant temperature water bath pot at 37° C. and timed incubation was started for 5, 10, 20, 30 and 60 min.
(§14) f. Stopping reaction: After the corresponding time of incubation, 400 μL of stop solution was added to stop the reaction, and then the sample was immediately shaken for 1 min. The sample was centrifuged at 13500 rpm for 10 min at 10° C. After centrifugation, the supernatant was removed, diluted with water according to the needs of each compound, and analyzed by LC-MS. For the 0-minute sample, the stop solution was first added and mixed evenly with the liver microsomes, and then the NADPH working solution was added. For the negative control sample, 20 μL of 30 mM MgCl2 solution was added instead of the NADPH working solution.
(§15) T1/2 and CLint(mic) were calculated by the following formula.
(§16) [formula] [formula] • CLint(mic)=0.693/T1/2/liver microsomal protein concentration during incubation (mg/mL) • CLint(ver)=CLint(mic)*liver microsomal protein (mg)/liver weight (g)*liver weight to body weight ratio
(§17) Liver microsomal protein (mg)/liver weight (g): the value is 45 in both animal and human species.
(§18) Liver weight to body weight ratio: the parameters for mice, rats and humans are 88, 40 and 20 g/kg respectively.

[3] = Metabolic stability in rat liver microsomes; assay type: in vitro ADME; conditions: for CLint scaled at 1 µM / half-life at 1 µM / microsomal CLint at 1 µM: rat; for CLint scaled at 1 µM / half-life at 1 µM: pH 7.4; for microsomal CLint at 1 µM: pH 7.4, read-out: CLint(mic)
Protocol: as §9, §10, §11, §12, §13, §14, §15, §16, §17, §18

[4] = Metabolic stability in human liver microsomes; assay type: in vitro ADME; conditions: for CLint scaled at 1 µM / half-life at 1 µM / microsomal CLint at 1 µM: human; for CLint scaled at 1 µM / half-life at 1 µM: pH 7.4; for microsomal CLint at 1 µM: pH 7.4, read-out: CLint(mic)
Protocol: as §9, §10, §11, §12, §13, §14, §15, §16, §17, §18

PLK1 kinase = molecular target: T1, PLK1 kinase (Homo sapiens, UniProt P53350); assay: Inhibitory activity on PLK1 kinase; assay type: biochemical; conditions: for IC50: PLK1 kinase, highest concentration 1 μM, 10 points, read-out: IC50; for Imax: maximum effect caused by the compound at the test concentration
T1 construct: purchased Carnabio (Carna Biosciences) 05-157
T1 sequence (P53350 whole entry): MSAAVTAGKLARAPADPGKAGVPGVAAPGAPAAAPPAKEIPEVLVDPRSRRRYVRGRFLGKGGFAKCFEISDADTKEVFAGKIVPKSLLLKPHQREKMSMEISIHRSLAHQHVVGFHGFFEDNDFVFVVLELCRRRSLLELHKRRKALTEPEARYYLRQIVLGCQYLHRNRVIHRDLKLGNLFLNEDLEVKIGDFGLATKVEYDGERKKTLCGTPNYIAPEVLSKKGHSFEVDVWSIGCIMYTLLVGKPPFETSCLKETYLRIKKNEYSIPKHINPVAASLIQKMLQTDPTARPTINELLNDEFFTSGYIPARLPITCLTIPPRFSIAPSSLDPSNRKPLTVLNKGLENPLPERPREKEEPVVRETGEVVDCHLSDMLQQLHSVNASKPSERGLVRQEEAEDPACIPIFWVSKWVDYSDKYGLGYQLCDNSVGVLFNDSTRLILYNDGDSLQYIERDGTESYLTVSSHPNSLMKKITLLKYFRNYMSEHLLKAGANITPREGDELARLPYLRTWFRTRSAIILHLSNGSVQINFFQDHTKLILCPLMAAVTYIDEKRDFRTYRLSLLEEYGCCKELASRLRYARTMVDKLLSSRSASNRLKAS
Protocol: Detection solution PerkinElmer #TRF0218-M
Detection instrument PerkinElemer EnVision
a. Using the Echo machine, the compounds to be tested were diluted by 1:3 on a 384-well plate, and the highest concentration was 1 μM, with a total of 10 concentration points, and each concentration was tested in duplicate wells.
b. 5 μL/well of PLK1 kinase and peptide substrate mixture were added to the assay plate (containing controls).
d. The reaction was initiated by adding 5 μL/well of ATP solution;
e. The assay plate was centrifuged at 1000 rpm for about 15 seconds, a film was used to seal the assay plate which was incubated at 23° C. for a period of time;
f. A detection solution was added to all wells of the assay plate;
g. The assay plate was centrifuged at 1000 rpm for approximately 15 seconds, a film was used to seal the assay plate which was incubated at 23° C. for 60 min.
h. The assay plate was read on EnVision. The test results were analyzed using XLFIT5 software.

[5] = HCT-116, HCT116 cells, 72 h, read-out: IC50

SMILES	efflux ratio at 120 min [1]	Papp at 120 min [1]	Papp A→B at 120 min [1]	Papp B→A at 120 min [1]	Classification Efflux transporter substrate (Caco-2 cells)	60 min remaining amount [2]	Clearance rate [2]	CLint scaled at 1 µM [2]	half-life at 1 µM [2]	microsomal CLint at 1 µM [2]	60 min remaining amount [3]	Clearance rate [3]	CLint scaled at 1 µM [3]	half-life at 1 µM [3]	microsomal CLint at 1 µM [3]	60 min remaining amount [4]	Clearance rate [4]	IC50 (PLK1 kinase)	Imax (PLK1 kinase)	IC50 (HCT116 cells; [5])	also measured
CN1CCN(c2ccc(OC(F)(F)F)c(Nc3ncc4c(n3)-c3c(c(C(=O)NNC(N)=O)nn3C)CC4)c2)CC1 [Compound 12]	> 56.7	< 0.5 ×10⁻⁶ cm/s	< 0.264 ×10⁻⁶ cm/s	15 ×10⁻⁶ cm/s	Likely (ERa ≥ 2.00)	26.9%	Medium	163 mL/min/kg	33.6 min	41.2 µL/min/mg	7.43%	High	153 mL/min/kg	16.3 min	85 µL/min/mg	70.8%	Medium				IC50 (HCT116 cells; HCT-116, 72 h): 861 nM; CLint scaled at 1 µM [4]: 10.4 mL/min/kg; half-life at 1 µM [4]: 119 min; microsomal CLint at 1 µM [4]: 11.6 µL/min/mg
CCc1sc(C(N)=O)c2c1-c1nc(Nc3cc(N4CCN(C)CC4)ccc3OC(F)(F)F)ncc1CC2 [Compound 7]	1.97	< 0.5 ×10⁻⁶ cm/s	0.275 ×10⁻⁶ cm/s	0.542 ×10⁻⁶ cm/s	Very unlikely or not (ERa < 2.00)	2.92%	High	940 mL/min/kg	5.84 min	237 µL/min/mg	2.06%	High	1090 mL/min/kg	2.3 min	603 µL/min/mg	14.1%	High	0.79 nM	100.68%		CLint scaled at 1 µM [4]: 60.7 mL/min/kg; half-life at 1 µM [4]: 20.6 min; microsomal CLint at 1 µM [4]: 67.4 µL/min/mg
CN1C2CCC1CN(c1ccc(OC(F)(F)F)c(Nc3ncc4c(n3)-c3c(c(C(N)=O)nn3CCO)CC4)c1)C2 [Compound 23]	> 82.6	< 0.5 ×10⁻⁶ cm/s	< 0.28 ×10⁻⁶ cm/s	23.1 ×10⁻⁶ cm/s	Likely (ERa ≥ 2.00)													3.66 nM	98.18%	214 nM	
CN1CCN(c2ccc(OC(F)(F)F)c(Nc3ncc4c(n3)-c3c(c(C(=O)NS(=O)(=O)C(F)(F)F)nn3CCO)CC4)c2)CC1 [Compound 8]	> 30.3	< 0.5 ×10⁻⁶ cm/s	< 0.48 ×10⁻⁶ cm/s	14.5 ×10⁻⁶ cm/s	Likely (ERa ≥ 2.00)													14.7 nM	95.96%	3400 nM	
CN1CCN(c2ccc(OC(F)(F)F)c(Nc3ncc4c(n3)-c3c(c(C(=O)NO)nn3CCO)CC4)c2)CC1 [Compound 10]	> 51.7	< 0.5 ×10⁻⁶ cm/s	< 0.48 ×10⁻⁶ cm/s	24.8 ×10⁻⁶ cm/s	Likely (ERa ≥ 2.00)													1.16 nM	99.92%	49 nM	IC50 (HCT116 cells; HCT-116, HCT116 cells, 72 h, read-out: half inhibitory concentration): 49 nM
CN1CCN(c2ccc(OC(F)(F)F)c(Nc3ncc4c(n3)-c3c(c(C(=O)NS(=O)(=O)C5CC5)nn3CCO)CC4)c2)CC1 [Compound 9]	> 25.4	< 0.5 ×10⁻⁶ cm/s	< 0.254 ×10⁻⁶ cm/s	6.43 ×10⁻⁶ cm/s	Likely (ERa ≥ 2.00)													327 nM	72.68%	> 10000 nM	
